# Laboratory results taken from US20100192451A1, “MOSQUITO ATTRACTANT COMPOSITIONS AND METHODS” (priority 2008, published 2010).
# What was measured:
# gravid Ae. aegypti [1] = test: Egg-laying (contact-mediated) binary choice bioassay; assay type: in vivo, Aedes aegypti; details: for induction of egg laying by synthetic compounds: 1, 10 and 100 ng in 30 mL water
# Protocol: Modifications of the olfactory- and contact-mediated bioassays previously described (Trexler J D, Apperson C S, Schal C (1998) J Med Entomol 35:967-976) were used to measure the response of gravid mosquitoes to plant infusions (or bacterial compounds). Briefly, two 125-mL polypropylene cups (test and control) were placed randomly in diagonal corners of a Plexiglas cage (30×30×30 cm) that was fitted with a stockinet cloth sleeve (AlbaHealth, Rockwood, Tenn.). Each cup was filled with 30 mL of either test or control solution. White paper sleeves were placed around each bioassay cup to mask visual cues presented by darkly colored leaf infusions. Adults had ad libitum access to water contained in a polypropylene cup that was fitted with a lid with a cotton wick protruding through a hole in the lid. For egg-laying bioassays, either one or five gravid females were released in each replicate cage. Cages were placed randomly on racks in a room where environmental conditions were the same as in the insectary. After a 24 h exposure period, eggs laid on the surface of the water in the test and control cups were counted. In olfactory bioassays, 10 gravid females were released in each bioassay cage. A circular metal wire-mesh screen covered with insect glue (Tanglefoot; Tanglefoot Co.) was inserted in each cup on top of an insert cut from a 120-mL polypropylene cup. Sticky screens were placed above test and control media, 2.5 cm below the lip of each cup. The mesh size of the metal screen prevented females from entering without landing on the screen. Therefore, positive or negative responses to the test infusions were measured by the numbers of females trapped during a 24 h exposure period on the sticky screen in the test and control cups.
# For each replicate bioassay cage, the numbers of eggs laid in the test and control cups were converted to the proportion of the total number of eggs laid. The proportions were subjected to an arcsin√x transformation to achieve approximate normality. A one-tailed paired t test was used to determine whether differences in the mean transformed proportion of eggs deposited in test and control cups were statistically significant.
# Synthetic compounds were bioassayed by placing hexane solutions on the surface of sterile distilled water; water in control cups was treated with hexane alone. The hexane was evaporated in a fume hood before bioassays commenced. Each bioassay was with a single female and lasted 72 h.
# gravid Ae. aegypti [2] = test: as above; assay type: in vivo, Aedes aegypti; details: for Eggs per assay: five females per assay, 24-h
# [3] = dose 1 ng in 30 mL water, single female, 72 h
# [4] = dose 10 ng in 30 mL water, single female, 72 h
# [5] = dose 10 ng, single female, 72 h
# [6] = dose 100 ng in 30 mL water, single female, 72 h
# [7] = dose 100 ng, single female, 72 h
# [8] = 1 ng, five females, 24 h assays
# [9] = dose 0.01 ng, five females per assay, 24-h
# [10] = dose 0.1 ng, five females per assay, 24-h
# [11] = dose 1.0 ng, five females per assay, 24-h
# [12] = dose 0.01 mg, single female, 72 h
# [13] = dose 0.1 mg, single female, 72 h
# [14] = dose 1.0 mg, single female, 72 h
smiles,measurement,setting,value
CCCCCCCCC(=O)O [Nonanoic acid],induction of egg laying by synthetic compounds,"gravid Ae. aegypti [1]; single female, 72 h",highly effective at inducing egg laying
same,"Treatment, % (eggs in treatment cup)",gravid Ae. aegypti [1]; [3],38.6%
same,Eggs per assay,"gravid Ae. aegypti [1]; dose 1 ng, single female, 72 h",70.9 ± 4.0
same,"Treatment, % (eggs in treatment cup)",gravid Ae. aegypti [1]; [4],58.3%
same,Eggs per assay,gravid Ae. aegypti [1]; [5],74.3 ± 6.1
same,"Treatment, % (eggs in treatment cup)",gravid Ae. aegypti [1]; [6],69.1%
same,Eggs per assay,gravid Ae. aegypti [1]; [7],80.0 ± 3.3
CCCCCCCCCC(=O)O [Decanoic acid],"Treatment, % (eggs in treatment cup)",gravid Ae. aegypti [1]; [3],43.7%
same,Eggs per assay,"gravid Ae. aegypti [1]; dose 1 ng, single female, 72 h",60.0 ± 5.6
same,"Treatment, % (eggs in treatment cup)",gravid Ae. aegypti [1]; [4],52.2%
same,Eggs per assay,gravid Ae. aegypti [1]; [5],61.3 ± 5.0
same,"Treatment, % (eggs in treatment cup)",gravid Ae. aegypti [1]; [6],45.8%
same,Eggs per assay,gravid Ae. aegypti [1]; [7],67.0 ± 7.0
"CCCCCCCCCCCCCCCC(=O)OC [Hexadecanoic acid, methyl ester]","Treatment, % (eggs in treatment cup)",gravid Ae. aegypti [1]; [3],34.7%
same,Eggs per assay,"gravid Ae. aegypti [1]; dose 1 ng, single female, 72 h",51.0 ± 3.5
same,"Treatment, % (eggs in treatment cup)",gravid Ae. aegypti [1]; [4],59.1%
same,Eggs per assay,gravid Ae. aegypti [1]; [5],51.3 ± 3.0
same,"Treatment, % (eggs in treatment cup)",gravid Ae. aegypti [1]; [6],60.4%
same,Eggs per assay,gravid Ae. aegypti [1]; [7],58.6 ± 3.8
CCCCCCCCCCCCCC(=O)O [Tetradecanoic acid],eggs per female in 24 h,gravid Ae. aegypti [1]; [8],43.4±3.9
same,diversion of oviposition to treated water,"gravid Ae. aegypti [1]; 10 ng, single female, 72 h",diverted the greatest amount of oviposition to the treated water
same,induction of egg laying by synthetic compounds,"gravid Ae. aegypti [1]; single female, 72 h",highly effective at inducing egg laying
same,Eggs per assay,gravid Ae. aegypti [1]; [9],318.5 ± 14.4
same,"Treatment, % (eggs in treatment cup)",gravid Ae. aegypti [1]; [9],52.3%
same,Eggs per assay,gravid Ae. aegypti [1]; [10],232.1 ± 22.3
same,"Treatment, % (eggs in treatment cup)",gravid Ae. aegypti [1]; [10],57.8%
same,"Treatment, % (eggs in treatment cup)",gravid Ae. aegypti [1]; [3],45.4%
same,Eggs per assay,gravid Ae. aegypti [1]; [11],216.8 ± 19.4
same,"Treatment, % (eggs in treatment cup)",gravid Ae. aegypti [1]; [11],76.9%
same,Eggs per assay,"gravid Ae. aegypti [1]; dose 1 ng, single female, 72 h",79.6 ± 2.7
same,"Treatment, % (eggs in treatment cup)",gravid Ae. aegypti [1]; [4],81.0%
same,"Treatment, % (eggs in treatment cup)","gravid Ae. aegypti [1]; dose 10 ng, five females per assay, 24-h",57.9%
same,Eggs per assay,gravid Ae. aegypti [1]; [5],87.7 ± 5.1
same,"Treatment, % (eggs in treatment cup)",gravid Ae. aegypti [1]; [6],62.1%
same,"Treatment, % (eggs in treatment cup)","gravid Ae. aegypti [1]; dose 100 ng, five females per assay, 24-h",38.7%
same,Eggs per assay,gravid Ae. aegypti [1]; [7],80.2 ± 5.2
same,oviposition stimulation,gravid Ae. aegypti [2]; [8],highly stimulatory
same,Eggs per assay,gravid Ae. aegypti [2]; dose 10 ng,196.4 ± 23.2
same,Eggs per assay,gravid Ae. aegypti [2]; dose 100 ng,260.4 ± 30.9
CCCCCCCCCCCCCCCC(=O)O [Hexadecanoic acid],"Treatment, % (eggs in treatment cup)",gravid Ae. aegypti [1]; [3],53.4%
same,Eggs per assay,"gravid Ae. aegypti [1]; dose 1 ng, single female, 72 h",63.7 ± 4.2
same,"Treatment, % (eggs in treatment cup)",gravid Ae. aegypti [1]; [4],43.2%
same,Eggs per assay,gravid Ae. aegypti [1]; [5],63.5 ± 4.9
same,"Treatment, % (eggs in treatment cup)",gravid Ae. aegypti [1]; [6],38.2%
same,Eggs per assay,gravid Ae. aegypti [1]; [7],71.8 ± 4.8
CCCCCCCCCCCCCCCCCC(=O)O [Octadecanoic acid],"Treatment, % (eggs in treatment cup)",gravid Ae. aegypti [1]; [3],55.1%
same,Eggs per assay,"gravid Ae. aegypti [1]; dose 1 ng, single female, 72 h",71.3 ± 3.3
same,"Treatment, % (eggs in treatment cup)",gravid Ae. aegypti [1]; [4],46.4%
same,Eggs per assay,gravid Ae. aegypti [1]; [5],69.0 ± 3.6
same,"Treatment, % (eggs in treatment cup)",gravid Ae. aegypti [1]; [6],58.4%
same,Eggs per assay,gravid Ae. aegypti [1]; [7],64.8 ± 4.8
"CCCCCCCCCCCCCC(=O)OC [Tetradecanoic acid, methyl ester]",induction of egg laying by synthetic compounds,"gravid Ae. aegypti [1]; single female, 72 h",highly effective at inducing egg laying
same,"Treatment, % (eggs in treatment cup)",gravid Ae. aegypti [1]; [3],55.0%
same,Eggs per assay,"gravid Ae. aegypti [1]; dose 1 ng, single female, 72 h",68.3 ± 5.4
same,"Treatment, % (eggs in treatment cup)",gravid Ae. aegypti [1]; [4],70.2%
same,Eggs per assay,gravid Ae. aegypti [1]; [5],64.0 ± 7.1
same,"Treatment, % (eggs in treatment cup)",gravid Ae. aegypti [1]; [6],51.0%
same,Eggs per assay,gravid Ae. aegypti [1]; [7],70.6 ± 6.0
CCCCCCCCCCCC(=O)O [Dodecanoic acid],"Treatment, % (eggs in treatment cup)",gravid Ae. aegypti [1]; [3],47.0%
same,Eggs per assay,"gravid Ae. aegypti [1]; dose 1 ng, single female, 72 h",67.3 ± 4.0
same,"Treatment, % (eggs in treatment cup)",gravid Ae. aegypti [1]; [4],43.4%
same,Eggs per assay,gravid Ae. aegypti [1]; [5],66.3 ± 3.1
same,"Treatment, % (eggs in treatment cup)",gravid Ae. aegypti [1]; [6],47.6%
same,Eggs per assay,gravid Ae. aegypti [1]; [7],63.8 ± 3.4
same,Eggs per assay,gravid Ae. aegypti [1]; [12],66.5 ± 4.2
same,"Treatment, % (eggs in treatment cup)",gravid Ae. aegypti [1]; [12],52.2%
same,Eggs per assay,gravid Ae. aegypti [1]; [13],64.4 ± 2.9
same,"Treatment, % (eggs in treatment cup)",gravid Ae. aegypti [1]; [13],45.8%
same,Eggs per assay,gravid Ae. aegypti [1]; [14],60.2 ± 2.8
same,"Treatment, % (eggs in treatment cup)",gravid Ae. aegypti [1]; [14],42.2%
